The test system of data set [1] is Human immunodeficiency virus 1. Nature of the data set: Antiviral activity against multidrug resistant HIV1 IIIB containing reverse transcriptase K103N and Y181C mutation infected in human MT2 cells assessed as cytoprotection from infection by MTT colorimetric method. The data set is classed as functional, organism-based. The conditions noted are these: for EC50: mt2; for pEC50: Human immunodeficiency virus 1, IIIB, MT2, read-out: EC50.

The next data set concerns MT2. The data set can be described thus: (§1) Cytotoxicity in human MT2 cells assessed as inhibition of cell growth. The conditions noted are these: mt2. The data set is classed as cell-based.
The test system of data set [2] is Human immunodeficiency virus 1. Nature of the data set: Antiviral activity against multidrug resistant HIV1 IIIB containing reverse transcriptase Y181C mutation infected in human MT2 cells assessed as cytoprotection from infection by MTT colorimetric method. The conditions noted are these: for pEC50: Human immunodeficiency virus 1, IIIB, MT2, read-out: EC50; for EC50: mt2. The format is functional, organism-based. (In general: Tetrazolium assays rely on reduction of a dye to a coloured formazan, in cell work by metabolically active cells.)

For data set [3], the system named is Human immunodeficiency virus 1. The data set can be described thus: microbe, parasite or virus in culture. The conditions noted are these: Human immunodeficiency virus 1, IIIB, MT2.
Description: Antiviral activity against multidrug resistant HIV1 IIIB containing reverse transcriptase infected in human MT2 cells assessed as cytoprotection from infection by MTT colorimetric method
The nature of data set [4]: Octanol-water partition coefficient, log P of the compound. The data set is classed as physicochemical.
A short description of data set [5]: as §1. The data set is classed as cell-based. The conditions noted are these: MT2 cells.

pEC50: −log10 of the molar value.

As to `N#Cc1ccc(Nc2ncc(Cc3c(F)cccc3F)o2)cc1`, in data set [1], the EC50 entry is given as “Not Active”.

On to `N#Cc1ccc(Nc2ncc(Cc3c(F)cc(F)cc3F)o2)cc1Cl`, for which, in the data set on MT2, the CC50 (usually the concentration that lowers cell viability or growth by half) was 7000 nM. The EC50 result in data set [1] is recorded as “Not Active”. Moreover, the results for the pEC50 in data set [2] and in data set [3] were 6.04 and 8.04, respectively.

In the case of `Cc1cc(F)c(Cc2cnc(Nc3ccc(C#N)c(Cl)c3)o2)c(F)c1`, in the data set on MT2, the CC50 worked out at 31000 nM. The pEC50 – broadly, the negative decadic logarithm of the EC50, by convention in mol/L – in data set [1] was 5.14; in data set [2] it was 6.68; in data set [3], 7.96.

As to `CCc1cc(F)c(Cc2cnc(Nc3ccc(C#N)c(Cl)c3)o2)c(F)c1`, the CC50 with MT2 is 10000 nM. The negative logarithm of the EC50 (pEC50) in data set [1] is 6.68; in data set [2], 8.16; in data set [3] it was 8.89.

Take `CC(C)c1cc(F)c(Cc2cnc(Nc3ccc(C#N)c(Cl)c3)o2)c(F)c1`: in data set [4], the lipophilicity (logP) (usually the decadic logarithm of the partition coefficient of the neutral form, usually between octanol and water) was 3.7. In addition, the cytotoxic concentration (CC50) in the data set on MT2 came to 5000 nM. Besides, the figures for the negative-log EC50 (pEC50) in data set [1], in data set [2] and in data set [3] were 6.92, 8.14 and 8.28, respectively.

With `N#Cc1ccc(Nc2ncc(Cc3c(F)cc(C4CC4)cc3F)o2)cc1Cl`, the logP in data set [4] came out at 3.3. Also, in the data set on MT2, the cytotoxic concentration (CC50) was 65000 nM. The negative-log EC50 (pEC50) in data set [1] was 4.97; in data set [2], 5.82; in data set [3] it was 7.62.

Consider `N#Cc1ccc(Nc2ncc(Cc3c(F)cc(CC4CC4)cc3F)o2)cc1Cl`, for which the 50% cytotoxic concentration (CC50) in the data set on MT2 is 29000 nM. Also, the pEC50 in data set [1] was 4.82; in data set [2], 5.92; in data set [3] it was 7.17.

Turning to `CCOc1cc(F)c(Cc2cnc(Nc3ccc(C#N)c(Cl)c3)o2)c(F)c1`, the 50% cytotoxic concentration (CC50) in the data set on MT2 was found to be 15000 nM. The negative-log EC50 (pEC50) in data set [1] was 6.12; in data set [2] it was 7.32; in data set [3], 7.55.

`COCc1cc(F)c(Cc2cnc(Nc3ccc(C#N)c(Cl)c3)o2)c(F)c1`: the CC50 in the data set on MT2 was 15000 nM. For the same molecule, the negative-log EC50 (pEC50) in data set [1] is 5.20; in data set [2] it was 6.16; in data set [3] it was 8.44.

In the case of `CCc1cc(F)c(Cc2cnc(Nc3ccc(Oc4cccnc4)c(Cl)c3)o2)c(F)c1`, in the data set on MT2, the CC50 is 5000 nM. The negative-log EC50 (pEC50) in data set [1] is 6.10; in data set [2], 7.22; in data set [3], 8.30.

Regarding `CC(C)(C)c1cc(Cl)c(Cc2cnc(Nc3ccc(C#N)c(Cl)c3)o2)c(Cl)c1`, the 50% cytotoxic concentration (CC50) in the data set with MT2 came out at 6000 nM. Moreover, the EC50 entry in data set [1] and in data set [2] was “Not Active” throughout. In addition, the pEC50 in data set [3] was 5.89.

Take `CCC(C)c1cc(F)c(Cc2cnc(Nc3ccc(C#N)c(Cl)c3)o2)c(F)c1` (racemic): the cytotoxic concentration (CC50) in the data set on MT2 was 40000 nM. Moreover, the pEC50 in data set [1] is 5.55; in data set [2] it was 6.82; in data set [3] it was 6.92.

In the case of `Cc1ccnc2c1NC(=O)c1cccnc1N2C1CC1` [NEVIRAPINE], the half-maximal cytotoxic concentration (CC50) in data set [5] was greater than 100000 nM. Moreover, the EC50 result in data set [1] and in data set [2] was “Not Active” in each case.

Values taken from ChEMBL document CHEMBL2321848, “Optimization of benzyloxazoles as non-nucleoside inhibitors of HIV-1 reverse transcriptase to enhance Y181C potency” (Bioorg Med Chem Lett, 2013).
